# According to PubChem BioAssay (NCI):
#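 Values below derive from 48-hour exposures of cells grown in 96-well plates, with endpoints linearly interpolated between the two concentrations bracketing the appropriate inhibition level. GI50 = concentration required for 50% inhibition of growth. Definition used: TGI = concentration required for complete inhibition of growth.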
# Legend:
# Assay in all cases: growth of human tumour cells (NCI), 48 h
# [1] = system: M14 melanoma
# [2] = system: ACHN renal
# [3] = system: COLO 205 colon
# [4] = system: CAKI-1 renal
# [5] = system: HCC-2998 colon
# [6] = system: SF-295 CNS
# [7] = system: A549 NSCLC
# [8] = system: PC-3 prostate
# [9] = system: SNB-19 CNS
# [10] = system: TK-10 renal
# [11] = system: SK-MEL-5 melanoma
# [12] = system: MCF7 breast
# [13] = system: UO-31 renal
# [14] = system: CCRF-CEM leukemia
# [15] = system: SNB-75 CNS
# [16] = system: 786-0 renal
# [17] = system: OVCAR-5 ovarian
# [18] = system: RPMI-8226 leukemia
# [19] = system: HOP-62 NSCLC
# [20] = system: NCI/ADR-RES ovarian
# [21] = system: NCI-H460 lung
# [22] = system: SR leukemia
# [23] = system: SK-MEL-28 melanoma
# [24] = system: LOX IMVI melanoma
# [25] = system: NCI-H226 lung
# [26] = system: A498 renal
# [27] = system: IGROV1 ovarian
# [28] = system: OVCAR-4 ovarian
# [29] = system: T-47D breast
# [30] = system: SN12C renal
# [31] = system: SW-620 colon
# [32] = system: KM12 colon
# [33] = system: HL-60(TB) leukemia
# [34] = system: HS 578T breast
# [35] = system: MOLT-4 leukemia
# [36] = system: UACC-257 melanoma
# [37] = system: HCT-15 colon
# [38] = system: UACC-62 melanoma
# [39] = system: BT-549 breast
# [40] = system: RXF 393 renal
# [41] = system: SK-OV-3 ovarian
# [42] = system: HCT-116 colon
# [43] = system: HOP-92 NSCLC
# [44] = system: MDA-MB-231 breast
# [45] = system: OVCAR-8 ovarian
# [46] = system: SF-268 CNS
# [47] = system: NCI-H522 lung
# [48] = system: K-562 leukemia
# [49] = system: NCI-H23 lung
# [50] = system: OVCAR-3 ovarian
# [51] = system: U251 CNS
# [52] = system: DU-145 prostate
# [53] = system: SF-539 CNS
# [54] = system: HT29 colon
structure (smiles),measurement,setting,value
COc1cccc(C2C(C#N)=C(N)Oc3cc(OC)ccc32)c1 (stereo not given),GI50,[1],27.1 nM
same,TGI,[1],> 100000 nM
same,GI50,[2],138 nM
same,TGI,[2],> 100000 nM
same,GI50,[3],46.4 nM
same,TGI,[3],529 nM
same,GI50,[4],49.3 nM
same,TGI,[4],> 100000 nM
same,GI50,[5],59.4 nM
same,GI50,[6],28.6 nM
same,TGI,[6],33900 nM
same,GI50,[7],49.6 nM
same,TGI,[7],> 100000 nM
same,GI50,[8],37.3 nM
same,TGI,[8],> 94600 nM
same,GI50,[9],517 nM
same,TGI,[9],> 89600 nM
same,GI50,[10],11800 nM
same,TGI,[10],74100 nM
same,GI50,[11],45.5 nM
same,TGI,[11],1690 nM
same,GI50,[12],21.1 nM
same,TGI,[12],> 72400 nM
same,GI50,[13],57.2 nM
same,TGI,[13],31100 nM
same,GI50,[14],32.8 nM
same,TGI,[14],> 45700 nM
same,GI50,[15],26.3 nM
same,TGI,[15],> 49600 nM
same,GI50,[16],55.6 nM
same,TGI,[16],> 66800 nM
same,GI50,[17],67.8 nM
same,TGI,[17],> 100000 nM
same,GI50,[18],37.2 nM
same,TGI,[18],23700 nM
same,GI50,[19],41.8 nM
same,TGI,[19],> 76600 nM
same,GI50,[20],18.4 nM
same,GI50,[21],35.3 nM
same,TGI,[21],3640 nM
same,GI50,[22],25.6 nM
same,TGI,[22],> 33800 nM
same,GI50,[23],57.7 nM
same,TGI,[23],> 100000 nM
same,GI50,[24],83.5 nM
same,TGI,[24],> 100000 nM
same,GI50,[25],896 nM
same,TGI,[25],> 100000 nM
same,GI50,[26],19.8 nM
same,TGI,[26],70.9 nM
same,GI50,[27],62.2 nM
same,TGI,[27],> 50900 nM
same,GI50,[28],1960 nM
same,TGI,[28],> 96800 nM
same,GI50,[29],43.7 nM
same,TGI,[29],63300 nM
same,GI50,[30],77.3 nM
same,TGI,[30],> 41800 nM
same,GI50,[31],35 nM
same,TGI,[31],> 100000 nM
same,GI50,[32],31.4 nM
same,TGI,[32],5610 nM
same,GI50,[33],26.3 nM
same,TGI,[33],77 nM
same,GI50,[34],27.9 nM
same,TGI,[34],10300 nM
same,GI50,[35],59.8 nM
same,TGI,[35],> 37400 nM
same,GI50,[36],1100 nM
same,TGI,[36],> 83900 nM
same,GI50,[37],36.6 nM
same,TGI,[37],> 100000 nM
same,GI50,[38],68.2 nM
same,TGI,[38],> 94900 nM
same,GI50,[39],106 nM
same,TGI,[39],17000 nM
same,GI50,[40],26 nM
same,TGI,[40],81100 nM
same,GI50,[41],47.8 nM
same,GI50,[42],47.9 nM
same,TGI,[42],12400 nM
same,GI50,[43],82.2 nM
same,TGI,[43],25200 nM
same,GI50,[44],51.9 nM
same,TGI,[44],1490 nM
same,GI50,[45],48 nM
same,TGI,[45],> 100000 nM
same,GI50,[46],76.2 nM
same,TGI,[46],> 82300 nM
same,GI50,[47],< 10.5 nM
same,TGI,[47],55.6 nM
same,GI50,[48],20.3 nM
same,TGI,[48],> 100000 nM
same,GI50,[49],41.5 nM
same,TGI,[49],> 33000 nM
same,GI50,[50],24.4 nM
same,TGI,[50],1180 nM
same,GI50,[51],41.9 nM
same,TGI,[51],> 100000 nM
same,GI50,[52],34.7 nM
same,TGI,[52],1550 nM
same,GI50,[53],23.1 nM
same,TGI,[53],59.6 nM
same,GI50,[54],41.6 nM
same,TGI,[54],4960 nM
